Values quoted from earlier work as cited in patent US20200386739A1, “TREATMENT OF METAHNOGENIC BACTERIA AS A THERAPY FOR CHRONIC LUNG DISEASE” (priority 2019, published 2020).
Positions of bridges follow the written chain, without caps; N, C: chain ends. Non-standard residues stand in square brackets, D forms with d. Residues, ends and D or L forms follow the SMILES beside them. *: point of attachment. Ileψ(thiazoline)Cys = CC[C@H](C)[C@H](N)C1=N[C@H](C(=O)*)CS1; dOrn = NCCC[C@@H](N)C(=O)O

Assays:
[1] = tested on: guinea pig muscle strips from the ileum
Methanogens = conditions: cell wall lacks peptidoglycan
small intestine of dogs = conditions: in vivo infusion of methane into the small intestine of dogs; scintigraphy
guinea pig ileum = guinea pig ileum exposed to methane
[2] = tested on: methane producing patients with IBS-C and chronic constipation

CN1[C@@H]2CC[C@H]1C[C@@H](OC(=O)C(CO)c1ccccc1)C2 (some centres unmarked) [atropine]
effect on the methane-induced increase of contractile amplitude [1]: reduced

CC[C@H](C)[C@H](N)C1=N[C@H](C(=O)N[C@@H](CC(C)C)C(=O)N[C@H](CCC(=O)O)C(=O)N[C@H](C(=O)N[C@H]2CCCCNC(=O)[C@H](CC(N)=O)NC(=O)[C@@H](CC(=O)O)NC(=O)[C@H](Cc3cnc[nH]3)NC(=O)[C@@H](Cc3ccccc3)NC(=O)[C@H]([C@@H](C)CC)NC(=O)[C@@H](CCCN)NC2=O)[C@@H](C)CC)CS1 [bacitracin] ({Ileψ(thiazoline)Cys}-L[dE]IK[dOrn]I[dF]H[dD]N; lactam 4-C)
susceptibility of methanogens (Methanogens): susceptible

O=C(N[C@H](CO)[C@H](O)c1ccc([N+](=O)[O-])cc1)C(Cl)Cl [chloramphenicol]
susceptibility of methanogens (Methanogens): susceptible

C [methane]
slowing of small intestinal transit time (small intestine of dogs): 59%
amplitude of contractions (guinea pig ileum): increased
area under the curve (AUC) of intraluminal pressure (guinea pig ileum): increased
peristaltic velocity (guinea pig ileum): significantly decreased
contractile amplitude ([1]; methane infusion, ileum muscle strips): increased

CO[C@H]1/C=C/O[C@@]2(C)Oc3c(C)c(O)c4c(O)c(c5c(nc6cc(C)ccn65)c4c3C2=O)NC(=O)/C(C)=C\C=C\[C@H](C)[C@H](O)[C@@H](C)[C@@H](O)[C@@H](C)[C@H](OC(C)=O)[C@@H]1C [rifaximin]
colonic transit time and constipation symptoms [2]: improvement
methane production [2]: reduced

NC1=N[C@H](O)[C@H]2[C@H]3O[C@]4(O)O[C@@H]([C@@H](O)[C@@]2(N1)[C@@H]4O)[C@]3(O)CO [tetrodotoxin]
effect on the methane-induced increase of contractile amplitude [1]: blocked
